Tests used:
Format in all cases: functional
CCRF-CEM = test: Growth inhibition of human CCRF-CEM cells at 10^-5 M incubated for 48 hrs by sulforhodamine B assay; details: read-out: GI
MOLT-4 = test: Growth inhibition of human MOLT4 cells at 10^-5 M incubated for 48 hrs by sulforhodamine B assay; details: MOLT-4, 48 h, read-out: GI
SR = test: Growth inhibition of human SR cells at 10^-5 M incubated for 48 hrs by sulforhodamine B assay; details: read-out: GI
A549 = test: Growth inhibition of human A549/ATCC cells at 10^-5 M incubated for 48 hrs by sulforhodamine B assay; details: A549, 48 h, read-out: GI
EKVX = test: Growth inhibition of human EKVX cells at 10^-5 M incubated for 48 hrs by sulforhodamine B assay; details: read-out: GI
NCI-H226 = test: Growth inhibition of human NCI-H226 cells at 10^-5 M incubated for 48 hrs by sulforhodamine B assay; details: NCI-H226, 48 h, read-out: GI
NCI-H322M = test: Growth inhibition of human NCI-H322M cells at 10^-5 M incubated for 48 hrs by sulforhodamine B assay; details: read-out: GI
NCI-H522 = test: Growth inhibition of human NCI-H522 cells at 10^-5 M incubated for 48 hrs by sulforhodamine B assay; details: NCI-H522, 48 h, read-out: GI
COLO 205 = test: Growth inhibition of human COLO205 cells at 10^-5 M incubated for 48 hrs by sulforhodamine B assay; details: COLO 205, 48 h, read-out: GI
HCC 2998 = test: Growth inhibition of human HCC2998 cells at 10^-5 M incubated for 48 hrs by sulforhodamine B assay; details: HCC 2998, 48 h, read-out: GI
HCT-15 = test: Growth inhibition of human HCT15 cells at 10^-5 M incubated for 48 hrs by sulforhodamine B assay; details: HCT-15, 48 h, read-out: GI
HT-29 = test: Growth inhibition of human HT-29 cells at 10^-5 M incubated for 48 hrs by sulforhodamine B assay; details: HT-29, 48 h, read-out: GI
SW-620 = test: Growth inhibition of human SW620 cells at 10^-5 M incubated for 48 hrs by sulforhodamine B assay; details: SW-620, 48 h, read-out: GI
SF-295 = test: Growth inhibition of human SF295 cells at 10^-5 M incubated for 48 hrs by sulforhodamine B assay; details: SF-295, 48 h, read-out: GI
SF-539 = test: Growth inhibition of human SF539 cells at 10^-5 M incubated for 48 hrs by sulforhodamine B assay; details: SF-539, 48 h, read-out: GI
SNB-19 = test: Growth inhibition of human SNB19 cells at 10^-5 M incubated for 48 hrs by sulforhodamine B assay; details: SNB-19, 48 h, read-out: GI
SNB-75 = test: Growth inhibition of human SNB75 cells at 10^-5 M incubated for 48 hrs by sulforhodamine B assay; details: SNB-75, 48 h, read-out: GI
LOX IMVI = test: Growth inhibition of human LOXIMVI cells at 10^-5 M incubated for 48 hrs by sulforhodamine B assay; details: read-out: GI
Malme-3M = test: Growth inhibition of human MALME-3M cells at 10^-5 M incubated for 48 hrs by sulforhodamine B assay; details: read-out: GI
MDA-MB-435 = test: Growth inhibition of human MDA-MB-435 cells at 10^-5 M incubated for 48 hrs by sulforhodamine B assay; details: MDA-MB-435, 48 h, read-out: GI
SK-MEL-28 = test: Growth inhibition of human SK-MEL-28 cells at 10^-5 M incubated for 48 hrs by sulforhodamine B assay; details: SK-MEL-28, 48 h, read-out: GI
UACC-257 = test: Growth inhibition of human UACC257 cells at 10^-5 M incubated for 48 hrs by sulforhodamine B assay; details: UACC-257, 48 h, read-out: GI
UACC-62 = test: Growth inhibition of human UACC62 cells at 10^-5 M incubated for 48 hrs by sulforhodamine B assay; details: UACC-62, 48 h, read-out: GI
IGROV-1 = test: Growth inhibition of human IGROV1 cells at 10^-5 M incubated for 48 hrs by sulforhodamine B assay; details: IGROV-1, 48 h, read-out: GI
OVCAR-3 = test: Growth inhibition of human OVCAR3 cells at 10^-5 M incubated for 48 hrs by sulforhodamine B assay; details: OVCAR-3, 48 h, read-out: GI
OVCAR-4 = test: Growth inhibition of human OVCAR4 cells at 10^-5 M incubated for 48 hrs by sulforhodamine B assay; details: OVCAR-4, 48 h, read-out: GI
OVCAR-5 = test: Growth inhibition of human OVCAR5 cells at 10^-5 M incubated for 48 hrs by sulforhodamine B assay; details: OVCAR-5, 48 h, read-out: GI
A498 = test: Growth inhibition of human A498 cells at 10^-5 M incubated for 48 hrs by sulforhodamine B assay; details: A498, 48 h, read-out: GI
ACHN = test: Growth inhibition of human ACHN cells at 10^-5 M incubated for 48 hrs by sulforhodamine B assay; details: read-out: GI
CAKI-1 = test: Growth inhibition of human Caki1 cells at 10^-5 M incubated for 48 hrs by sulforhodamine B assay; details: CAKI-1, 48 h, read-out: GI
SN12C = test: Growth inhibition of human SN12C cells at 10^-5 M incubated for 48 hrs by sulforhodamine B assay; details: read-out: GI
TK-10 = test: Growth inhibition of human TK10 cells at 10^-5 M incubated for 48 hrs by sulforhodamine B assay; details: TK-10, 48 h, read-out: GI
PC-3 = test: Growth inhibition of human PC3 cells at 10^-5 M incubated for 48 hrs by sulforhodamine B assay; details: PC-3, 48 h, read-out: GI
DU-145 = test: Growth inhibition of human DU145 cells at 10^-5 M incubated for 48 hrs by sulforhodamine B assay; details: DU-145, 48 h, read-out: GI
MCF7 = test: Growth inhibition of human MCF7 cells at 10^-5 M incubated for 48 hrs by sulforhodamine B assay; details: MCF7, 48 h, read-out: GI
Hs-578T = test: Growth inhibition of human Hs 578T cells at 10^-5 M incubated for 48 hrs by sulforhodamine B assay; details: read-out: GI
BT-549 = test: Growth inhibition of human BT549 cells at 10^-5 M incubated for 48 hrs by sulforhodamine B assay; details: BT-549, 48 h, read-out: GI
T47D = test: Growth inhibition of human T47D cells at 10^-5 M incubated for 48 hrs by sulforhodamine B assay; details: read-out: GI
MDA-MB-468 = test: Growth inhibition of human MDA-MB-468 cells at 10^-5 M incubated for 48 hrs by sulforhodamine B assay; details: MDA-MB-468, 48 h, read-out: GI

SMILES	inhibition of growth at 10 µM (CCRF-CEM) [%]	inhibition of growth at 10 µM (MOLT-4) [%]	inhibition of growth at 10 µM (SR) [%]	inhibition of growth at 10 µM (A549) [%]	inhibition of growth at 10 µM (EKVX) [%]	inhibition of growth at 10 µM (NCI-H226) [%]	inhibition of growth at 10 µM (NCI-H322M) [%]	inhibition of growth at 10 µM (NCI-H522) [%]	inhibition of growth at 10 µM (COLO 205) [%]	inhibition of growth at 10 µM (HCC 2998) [%]	inhibition of growth at 10 µM (HCT-15) [%]	inhibition of growth at 10 µM (HT-29) [%]	inhibition of growth at 10 µM (SW-620) [%]	inhibition of growth at 10 µM (SF-295) [%]	inhibition of growth at 10 µM (SF-539) [%]	inhibition of growth at 10 µM (SNB-19) [%]	inhibition of growth at 10 µM (SNB-75) [%]	inhibition of growth at 10 µM (LOX IMVI) [%]	inhibition of growth at 10 µM (Malme-3M) [%]	inhibition of growth at 10 µM (MDA-MB-435) [%]	further results
Cc1cc(C)n(C2=Nc3c(sc4ccc(Cl)cc34)C(c3cccc([N+](=O)[O-])c3)N2)n1 (stereo unspecified)	-7.22	16.5	-4.84	3.8	24.2	17.1	0.71	10.8	-5.86	-5.86	-0.63	-2.6	-3.97	2.13	-0.76	3.18	7.66	0.51	-2.21	-3.52	inhibition of growth at 10 µM (SK-MEL-28): -16%; inhibition of growth at 10 µM (UACC-257): -4.2%; inhibition of growth at 10 µM (UACC-62): 9.64%; inhibition of growth at 10 µM (IGROV-1): 20.6%; inhibition of growth at 10 µM (OVCAR-3): -2.22%; inhibition of growth at 10 µM (OVCAR-4): -2.96%; inhibition of growth at 10 µM (OVCAR-5): -4.21%; inhibition of growth at 10 µM (A498): 1.15%; inhibition of growth at 10 µM (ACHN): 11.2%; inhibition of growth at 10 µM (CAKI-1): 26.4%; inhibition of growth at 10 µM (SN12C): 5.84%; inhibition of growth at 10 µM (TK-10): -12.7%; inhibition of growth at 10 µM (PC-3): 18.6%; inhibition of growth at 10 µM (DU-145): -11.3%; inhibition of growth at 10 µM (MCF7): 20.6%; inhibition of growth at 10 µM (Hs-578T): 0.17%; inhibition of growth at 10 µM (BT-549): -17.8%; inhibition of growth at 10 µM (T47D): 13.2%; inhibition of growth at 10 µM (MDA-MB-468): 8.16%
O=C1Nc2c(sc3ccc(Cl)cc23)C(c2ccc3ccccc3c2)N1 (stereo unspecified)	-13.3	12.9	20.9	4.41	16.5	7.25	9.44	11.9	-6.54	-14.6	1.48	-0.76	1.75	2.29	3.67	2.49	21.5	-0.62	17.3	-8.72	inhibition of growth at 10 µM (SK-MEL-28): 3.5%; inhibition of growth at 10 µM (UACC-257): 14.5%; inhibition of growth at 10 µM (UACC-62): -1.09%; inhibition of growth at 10 µM (IGROV-1): 17.4%; inhibition of growth at 10 µM (OVCAR-3): 3.83%; inhibition of growth at 10 µM (OVCAR-4): 3.19%; inhibition of growth at 10 µM (OVCAR-5): 8.06%; inhibition of growth at 10 µM (A498): 15.2%; inhibition of growth at 10 µM (ACHN): 10.1%; inhibition of growth at 10 µM (CAKI-1): 23.3%; inhibition of growth at 10 µM (SN12C): 10.9%; inhibition of growth at 10 µM (TK-10): 15.4%; inhibition of growth at 10 µM (PC-3): 7.25%; inhibition of growth at 10 µM (DU-145): -6.96%; inhibition of growth at 10 µM (MCF7): 22.5%; inhibition of growth at 10 µM (Hs-578T): 3.46%; inhibition of growth at 10 µM (BT-549): -1.2%; inhibition of growth at 10 µM (T47D): 24.2%; inhibition of growth at 10 µM (MDA-MB-468): -13.7%
O=C1/C(=C\c2cccc([N+](=O)[O-])c2)Sc2ccc(Cl)cc21	-0.32	2.66	54.8	-6.89	4.33	5.97	4.18	25.8	-6.01	-36.5	6.13	-3.12	2.49	-3.16	-3.16	-6.12	12.3	8.68	22.4	35.4	inhibition of growth at 10 µM (SK-MEL-28): -11.7%; inhibition of growth at 10 µM (UACC-257): -6.4%; inhibition of growth at 10 µM (UACC-62): 29.5%; inhibition of growth at 10 µM (IGROV-1): 19.9%; inhibition of growth at 10 µM (OVCAR-3): -2.4%; inhibition of growth at 10 µM (OVCAR-4): 21.4%; inhibition of growth at 10 µM (OVCAR-5): -1.89%; inhibition of growth at 10 µM (A498): 11.5%; inhibition of growth at 10 µM (ACHN): 27%; inhibition of growth at 10 µM (CAKI-1): -4.55%; inhibition of growth at 10 µM (SN12C): -12.1%; inhibition of growth at 10 µM (TK-10): -12.1%; inhibition of growth at 10 µM (PC-3): -3.94%; inhibition of growth at 10 µM (DU-145): -3.94%; inhibition of growth at 10 µM (MCF7): 22.4%; inhibition of growth at 10 µM (Hs-578T): -8.12%; inhibition of growth at 10 µM (BT-549): 20.8%; inhibition of growth at 10 µM (T47D): 13.1%; inhibition of growth at 10 µM (MDA-MB-468): 13.1%
O=C1Nc2c(sc3ccc(Cl)cc23)C(c2cccc([N+](=O)[O-])c2)N1 (stereo unspecified)	-13.9	11	20.8	1.5	25.3	17.5	10.4	9.73	-1.33	-3.91	-4.66	-3	-3.52	1.41	8.46	5.92	22.8	4.86	16.6	-2.51	inhibition of growth at 10 µM (SK-MEL-28): -5.57%; inhibition of growth at 10 µM (UACC-257): 0.85%; inhibition of growth at 10 µM (UACC-62): 8.84%; inhibition of growth at 10 µM (IGROV-1): 15.6%; inhibition of growth at 10 µM (OVCAR-3): -1.08%; inhibition of growth at 10 µM (OVCAR-4): 7.21%; inhibition of growth at 10 µM (OVCAR-5): 0.73%; inhibition of growth at 10 µM (A498): 15.5%; inhibition of growth at 10 µM (ACHN): 9.21%; inhibition of growth at 10 µM (CAKI-1): 20.3%; inhibition of growth at 10 µM (SN12C): 7.07%; inhibition of growth at 10 µM (TK-10): -4.8%; inhibition of growth at 10 µM (PC-3): 10.8%; inhibition of growth at 10 µM (DU-145): -4.61%; inhibition of growth at 10 µM (MCF7): 21.8%; inhibition of growth at 10 µM (Hs-578T): 3.78%; inhibition of growth at 10 µM (BT-549): 7.02%; inhibition of growth at 10 µM (T47D): 16.3%; inhibition of growth at 10 µM (MDA-MB-468): 8.51%

— ChEMBL document CHEMBL4414672, “Synthesis of certain benzothieno[3,2-d]pyrimidine derivatives as a selective SIRT2 inhibitors” (Eur J Med Chem, 2020)
